What was measured:
CK1 and CK2 = conditions: cited from earlier work
[1] = test system: major DNA-protein complex containing CCA1; test: EMSA: formation of the DNA-protein complex containing CCA1 in plant whole-cell extracts (A2 fragment of Lhcb1*3); type: biochemical, Arabidopsis; conditions: WCE preincubated 45 min at 30° C.
Description: WCE were incubated in the absence (lane 1) or presence (lane 2) of λ protein phosphatase (200 units added to 200 μl) for 30 min at 30° C. […] WCE from wild type (WT) and a CCA1-ox line (CCA1-ox) (7) grown in 12:12 photoperiods were used in the EMSA. […] WCE were incubated with the indicated inhibitor for 45 min at 30° C. Lane 1, no inhibitors; lane 2, 5 mM 2,3-diphosphoglycerate (D.G.); lane 3, 100 μM quercetin. Arrows indicate the position of the major DNA-protein complex containing CCA1.
CCA1 was incubated with 0.1 ng of end-labeled A2 fragment of the Arabidopsis Lhcb 1*3 gene (56) in the presence of 0.5 μg of poly(dI-dC) at 25° C. for 15 min. WCE were incubated in preincubation buffer (50 mM Tris-HCl, pH 7.5, 2 mM MnCl2, 5 mM DTT, 0.1 mM EDTA, 0.01% Brij 35) at 30° C. for 45 min, then incubated with the A2 probe in the presence of 1 μg of poly(dI-dC). The EMSA buffer and electrophoresis conditions have been described (56). DNA-protein complexes were detected by autoradiography.
The A2 fragment used as a probe includes known binding sites for G-box and CAAT binding proteins (56). […] Further evidence that the marked complex contains CCA1 includes the observations (data not shown) that this complex is absent in extracts prepared from CCA1-null mutant plants and that addition of anti-CCA1 antibodies inhibits its formation. […]

recombinant CK2 = test: In vitro kinase assay: phosphorylation of GST-CCA1 by recombinant CK2; type: biochemical, Arabidopsis; conditions: 10 mM inhibitor, recombinant CK2, [γ-32P]ATP
Description: (§1) GST (lanes 1 and 4) or GST-CCA1 (lanes 2, 3, 5-7) were incubated with 160 μg of WCE in the absence (lanes 1, 2, 4, and 5) or presence (lane 3) of 10 mM 2,3-diphosphoglycerate (D. G.), with recombinant CK2 (rCK2) in the absence (lane 6) or presence of 10 mM 2,3-diphosphoglycerate (lane 7) together with [γ-^32P]ATP (lanes 1-3, 6, and 7) or [γ-^32P]GTP (lanes 4 and 5). The arrow indicates the position of the full-length GST-CCA1 protein.
(§2) GST-CCA1 bound to glutathione-agarose beads was resuspended in 50 μl of CK2 buffer (50 mM Tris-HCl, pH 7.5, 10 mM MgCl2, 100 mM NaCl, 1 mM DTT. 0.1 mM ATP or GTP) in the presence of 5-10 μCi of [γ-^32P]ATP or GTP. The reaction was started by adding CK2 or whole-cell extracts (WCE) and incubating samples at 30° C. for 30 min. WCE were prepared as described previously (3) except that the phosphatase inhibitor cocktail (5 mM NH4VO3, 0.2 mM ammonium molybdate, 1 mM EGTA, 50 mM NaF) was added to extraction buffer. The beads were washed with phosphate-buffered saline (PBS) containing 1% Triton X-100 and resuspended in 1X SDS-PAGE sample buffer. The phosphorylated samples were separated by 10% SDS-PAGE. ^32P-labeled bands were detected by autoradiography and quantitated with a PhosphorImager.
(§3) We next examined whether plants contain a CK2-like protein kinase activity that can phosphorylate CCA1 in vitro. […]

[2] = test system: CK2-like activity in Arabidopsis whole-cell extracts; test: In vitro kinase assay: phosphorylation of GST-CCA1 by Arabidopsis whole-cell extracts; type: biochemical; conditions: 10 mM inhibitor, 160 μg WCE, [γ-32P]ATP, 30° C. 30 min
Description: as §1, §2, §3

O=c1c(O)c(-c2ccc(O)c(O)c2)oc2cc(O)cc(O)c12 [quercetin]
kinase inhibition specificity (CK1 and CK2): specific to CK2
formation of the DNA-protein complex containing CCA1 ([1]; 100 μM inhibitor): abolished

2,3-diphosphoglycerate
reduction of phosphorylation of CCA1 (recombinant CK2): 77%
kinase inhibition specificity (CK1 and CK2): inhibits both CK1 and CK2
reduction of incorporation of ATP into GST-CCA1 [2]: 63%
formation of the DNA-protein complex containing CCA1 ([1]; 5 mM inhibitor): abolished

— patent US6727407B1, “NUCLEIC ACIDS ENCODING THE ARABIDOPSIS PROTEIN KINASE β-SUBUNIT CKB3 AND A METHOD OF ALTERING CIRCADIAN RHYTHMS AND FLOWERING IN A PLANT BY TRANFORMING WITH A NUCLEIC ACID ENCODING A PROTEIN KINASE β-SUBUNIT” (Regents of the University of California, priority 1998, dated 2004)
